The text below walks through data of patent US20090069319A1, “IMIDAZOPYRIDINE ANALOGS AND THEIR USE AS AGONISTS OF THE WNT-BETA-CATENIN CELLULAR MESSAGING SYSTEM” (Wyeth, priority 2007, published 2009).

Usually fold induction stands for the ratio of treated to control signal. A word on the EC50: it is the concentration giving half of the maximal effect.

Data set [1] concerns canonical Wnt-β-catenin cellular messaging system (16xTCF-TK-FireFly-Luci reporter, Wnt3a and Dkk1 co-transfected U2OS cells). Put plainly: Functional Dkk1-LRP5-TCF-Luciferase Assay in U2OS Cells (table columns: A=MAX FOLD Induction/DMSO CONTROL; B=fold induction @ 2.0 uM; C=fold induction @ 20.0 uM). The data set is classed as cell-based, Human. As to conditions: maximum fold induction over DMSO control. Summed up:
(§1)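 U2OS cells co-transfected with 16×TCF-TK-firefly luciferase, TK-Renilla control, Wnt3a and Dkk1, then frozen; thawed cells (~5,000/well, ~5% FBS, phenol red-free RPMI) incubated ~20 h at 37° C. with compound (0.25% DMSO). Firefly luminescence (Bright-Glo) normalized to DMSO mean as fold induction.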

Assay in data set [2]: as above
Type of data set: cell-based, Human. As to conditions: Homo sapiens; for fold induction at 2 µM / fold induction at 20 µM: U2OS; for fold induction at 2 µM: 2.0 uM compound; for EC50: U2OS cells, TCF-luciferase reporter; for fold induction at 20 µM: 20.0 uM compound. The method in brief: as §1
On the technique in general: Reporter assays use an easily measured gene product as a stand-in for the process of interest.

As to `COc1ccc(-c2nc3c(-c4ccc5ccccc5c4)ccnc3n2C2CCNCC2)cc1` [2-(4-methoxyphenyl)-7-(2-naphthyl)-3-piperidin-4-yl-3H-imidazo[4,5-b]pyridine], the “A = MAX FOLD Induction/DMSO CONTROL” value in data set [1] is on record as 1.320. The fold induction at 2 µM in data set [2] was found to be 1.98.
For `COc1cc(-c2nc3cc(-c4ccc5ccccc5c4)cnc3n2C2CCNCC2)ccc1O` [2-methoxy-4-[6-(2-naphthyl)-3-piperidin-4-yl-3H-imidazo[4,5-b]pyridin-2-yl]phenol], the “A = MAX FOLD Induction/DMSO CONTROL” value in data set [1] is 2.110. In data set [2], this compound showed an EC50 of 486 nM.
Turning to `Cc1nc2c(-c3ccc4ccccc4c3)ccnc2n1[C@@H]1CCCNC1` [2-methyl-7-(2-naphthyl)-3-[(3R)-piperidin-3-yl]-3H-imidazo[4,5-b]pyridine], the “A = MAX FOLD Induction/DMSO CONTROL” value in data set [1] is listed as 3.570. In data set [2], the fold induction at 2 µM came to 2.74, the fold induction at 20 µM is 0.05 and the EC50 amounted to 2680 nM.
`Cc1nc2c(-c3ccc4ccccc4c3)ccnc2n1[C@H]1CCCNC1` [2-methyl-7-(2-naphthyl)-3-[(3S)-piperidin-3-yl]-3H-imidazo[4,5-b]pyridine]: the “A = MAX FOLD Induction/DMSO CONTROL” value in data set [1] came to 1.910. Besides, in data set [2], the fold induction at 2 µM worked out at 2.12 and the fold induction at 20 µM was found to be 0.02.
`Cc1nc2c(-c3ccc4ccccc4c3)ccnc2n1C1CCNCC1` [2-methyl-7-(2-naphthyl)-3-piperidin-4-yl-3H-imidazo[4,5-b]pyridine]: the “A = MAX FOLD Induction/DMSO CONTROL” value in data set [1] came out at 3.215. Besides, in data set [2], the fold induction at 2 µM was determined as 2.84 and the response was half-maximal at 895 nM (EC50).
Consider `CS(=O)(=O)N1CCC(n2cnc3c(-c4ccc5ccccc5c4)ccnc32)CC1` [3-[1-(methylsulfonyl)piperidin-4-yl]-7-(2-naphthyl)-3H-imidazo[4,5-b]pyridine], for which the “A = MAX FOLD Induction/DMSO CONTROL” value in data set [1] came to 1.230. In data set [2], the fold induction at 2 µM is 1.66 and the fold induction at 20 µM came to 2.52.
Consider `c1ccc2cc(-c3ccnc4c3ncn4CCCn3ccnc3)ccc2c1` [3-[3-(1H-imidazol-1-yl)propyl]-7-(2-naphthyl)-3H-imidazo[4,5-b]pyridine], for which the “A = MAX FOLD Induction/DMSO CONTROL” value in data set [1] is on record as 2.870. In data set [2], the fold induction at 2 µM stood at 1.76, the fold induction at 20 µM came out at 3.31 and the concentration giving a half-maximal response (EC50) was found to be 10200 nM.
Take `Oc1cccc(-c2nc3cc(-c4ccc5ccccc5c4)cnc3n2C2CCNCC2)c1` [3-[6-(2-naphthyl)-3-piperidin-4-yl-3H-imidazo[4,5-b]pyridin-2-yl]phenol]: the “A = MAX FOLD Induction/DMSO CONTROL” value in data set [1] came out at 1.860. This compound yielded an EC50 in data set [2] of 1220 nM.
On to `c1c[nH]c(-c2nc3cc(-c4ccc5ccccc5c4)cnc3n2C2CCNCC2)c1` [6-(2-naphthyl)-3-piperidin-4-yl-2-(1H-pyrrol-2-yl)-3H-imidazo[4,5-b]pyridine], for which the “A = MAX FOLD Induction/DMSO CONTROL” value in data set [1] worked out at 1.580. In data set [2], the fold induction at 2 µM was 1.01 and the fold induction at 20 µM amounted to 1.99.
The like results for `c1cncc(-c2nc3cc(-c4ccc5ccccc5c4)cnc3n2C2CCNCC2)c1` [6-(2-naphthyl)-3-piperidin-4-yl-2-pyridin-3-yl-3H-imidazo[4,5-b]pyridine] were, in that order, 1.100, 1.75 and 0.005.
Take `c1ccc2cc(-c3ccnc4c3ncn4CC3CCNCC3)ccc2c1` [7-(2-naphthyl)-3-(piperidin-4-ylmethyl)-3H-imidazo[4,5-b]pyridine]: the “A = MAX FOLD Induction/DMSO CONTROL” value in data set [1] came to 1.930. Moreover, the fold induction at 2 µM in data set [2] came to 2.72.
Regarding `c1ccc2cc(-c3ccnc4c3ncn4[C@@H]3CCCNC3)ccc2c1` [7-(2-naphthyl)-3-[(3R)-piperidin-3-yl]-3H-imidazo[4,5-b]pyridine], the “A = MAX FOLD Induction/DMSO CONTROL” value in data set [1] is given as 3.820. Also, in data set [2], the fold induction at 2 µM amounted to 3.48, the fold induction at 20 µM worked out at 1.4 and the concentration giving a half-maximal response (EC50) was 963 nM.
`c1ccc2cc(-c3ccnc4c3ncn4[C@@H]3CCNC3)ccc2c1` [7-(2-naphthyl)-3-[(3R)-pyrrolidin-3-yl]-3H-imidazo[4,5-b]pyridine]: in data set [1], the “A = MAX FOLD Induction/DMSO CONTROL” value is 4.260. Further, in data set [2], the fold induction at 2 µM is 2.06, the fold induction at 20 µM came out at 1.65 and the 50% effective concentration (EC50) was found to be 3150 nM.
The matching figures for `c1ccc2cc(-c3ccnc4c3ncn4[C@H]3CCCNC3)ccc2c1` [7-(2-naphthyl)-3-[(3S)-piperidin-3-yl]-3H-imidazo[4,5-b]pyridine]: 2.303, 1.02, 0.01 and 18 nM.
In the case of `c1ccc2cc(-c3ccnc4c3ncn4[C@H]3CCNC3)ccc2c1` [7-(2-naphthyl)-3-[(3S)-pyrrolidin-3-yl]-3H-imidazo[4,5-b]pyridine], the “A = MAX FOLD Induction/DMSO CONTROL” value in data set [1] is on record as 2.780. In data set [2], the fold induction at 2 µM is 2.1 and the fold induction at 20 µM was determined as 0.44.
The matching figures for `c1ccc2cc(-c3ccnc4c3nc(-c3ccncc3)n4C3CCNCC3)ccc2c1` [7-(2-naphthyl)-3-piperidin-4-yl-2-pyridin-4-yl-3H-imidazo[4,5-b]pyridine]: 1.650, 1.89 and 2.27.
Regarding `c1ccc2cc(-c3ccnc4c3ncn4C3CCNCC3)ccc2c1` [7-(2-naphthyl)-3-piperidin-4-yl-3H-imidazo[4,5-b]pyridine], the “A = MAX FOLD Induction/DMSO CONTROL” value in data set [1] was 3.881. In addition, in data set [2], the fold induction at 2 µM amounted to 5.4, the fold induction at 20 µM is 0.063 and the concentration for a half-maximal effect (EC50) is 725 nM.
`CN(C)C(=O)N1CCC(n2cnc3c(-c4ccc5ccccc5c4)ccnc32)CC1` [N,N-dimethyl-4-[7-(2-naphthyl)-3H-imidazo[4,5-b]pyridin-3-yl]piperidine-1-carboxamide]: in data set [1], the “A = MAX FOLD Induction/DMSO CONTROL” value was determined as 1.080. In addition, in data set [2], the fold induction at 2 µM is 1.94 and the fold induction at 20 µM amounted to 2.09.
For `O=C1OC2(c3ccc(O)cc3Oc3cc(O)ccc32)c2ccc(NC(=S)N3CCC(n4cnc5c(-c6ccc7ccccc7c6)ccnc54)CC3)cc21` [N-(3′,6′-dihydroxy-3-oxo-3H-spiro[2-benzofuran-1,9′-xanthen]-5-yl)-4-[7-(2-naphthyl)-3H-imidazo[4,5-b]pyridin-3-yl]piperidine-1-carbothioamide], in data set [1], the “A = MAX FOLD Induction/DMSO CONTROL” value was 12.158. Further, in data set [2], the fold induction at 2 µM is 1.4; the fold induction at 20 µM was found to be 6.49; the midpoint of the response, the EC50, lay at 10700 nM.
For the compound `CC(=O)Nc1ccc(-c2nc3c(-c4ccc5ccccc5c4)ccnc3n2C2CCNCC2)cc1` [N-{4-[7-(2-naphthyl)-3-piperidin-4-yl-3H-imidazo[4,5-b]pyridin-2-yl]phenyl}acetamide], the “A = MAX FOLD Induction/DMSO CONTROL” value in data set [1] is recorded as 1.710. For the same compound, in data set [2], the fold induction at 2 µM came out at 1.99.
